Experimental data from patent US20120058133A1, “INHIBITION OF TRNA SYNTHETASES AND THERAPEUTIC APPLICATIONS THEREOF” (President and Fellows of Harvard College, priority 2009, published 2012).
Entries after “also recorded” stand apart in the source; their conditions may differ.

Tests used:
TGFβ signaling = assay: Lymphocyte responses to TGFβ (Smad phosphorylation and others); format: cell-based, mouse; conditions: low dose HF; 10 μM SB-431542
Experimental: FIG. 8. […] FIG. 8A is a set of FACS analyses of CD4^+ CD25^− T cells activated in Th1 or Th2 polarizing conditions, either in the presence or absence of TGFβ. DMSO, 10 nM HF, 10 nM MAZ1310, or 10 μM SB-431542 added as indicated at the time of activation. Intracellular cytokine staining was performed on expanded T cells on day 5.
FIG. 8B is a set of FACS analyses of CD8^+ T cells activated in the presence or absence of TGFβ and cultured with DMSO, 10 nM HF, 10 nM MAZ1310, or 10 μM SB-431542. Expanded cells were restimulated on day 5 and intracellular staining was performed.
FIG. 8C is a set of FACS analyses of CFSE-labeled B cells activated by LPS stimulation in the presence or absence of TGFβ plus DMSO, 10 nM HF, 10 nM MAZ1310, or 10 μM SB-431542. Intracellular IL-6 production in B cells restimulated with PMA plus ionomycin, or cell-surface IgA expression was determined 4 days after activation.
FIG. 8D depicts western blot analyses of purified CD4^+ CD25^− T cells treated with DMSO, 40 nM MAZ1310, titrating concentrations of HF (2.5-40 nM) or 10 μM SB-431542 for 30 minutes in complete medium supplemented with 0.1% fetal calf serum. T cells were then activated in the presence or absence of 3 ng/ml TGFβ. Whole cell extracts were prepared after 1 hour of stimulation and western blot analyses were performed using the indicated antibodies. […]

prolyl tRNA synthetase = biological target: T1, prolyl tRNA synthetase (Oryctolagus cuniculus, UniProt G1T2I4); assay: tRNA charging in RRL (14C Pro or 35S Met incorporation into tRNA); format: biochemical, rabbit
T1 construct: from tissue; host or cells: rabbit reticulocyte lysate (RRL)
T1 sequence (G1T2I4 1-1447): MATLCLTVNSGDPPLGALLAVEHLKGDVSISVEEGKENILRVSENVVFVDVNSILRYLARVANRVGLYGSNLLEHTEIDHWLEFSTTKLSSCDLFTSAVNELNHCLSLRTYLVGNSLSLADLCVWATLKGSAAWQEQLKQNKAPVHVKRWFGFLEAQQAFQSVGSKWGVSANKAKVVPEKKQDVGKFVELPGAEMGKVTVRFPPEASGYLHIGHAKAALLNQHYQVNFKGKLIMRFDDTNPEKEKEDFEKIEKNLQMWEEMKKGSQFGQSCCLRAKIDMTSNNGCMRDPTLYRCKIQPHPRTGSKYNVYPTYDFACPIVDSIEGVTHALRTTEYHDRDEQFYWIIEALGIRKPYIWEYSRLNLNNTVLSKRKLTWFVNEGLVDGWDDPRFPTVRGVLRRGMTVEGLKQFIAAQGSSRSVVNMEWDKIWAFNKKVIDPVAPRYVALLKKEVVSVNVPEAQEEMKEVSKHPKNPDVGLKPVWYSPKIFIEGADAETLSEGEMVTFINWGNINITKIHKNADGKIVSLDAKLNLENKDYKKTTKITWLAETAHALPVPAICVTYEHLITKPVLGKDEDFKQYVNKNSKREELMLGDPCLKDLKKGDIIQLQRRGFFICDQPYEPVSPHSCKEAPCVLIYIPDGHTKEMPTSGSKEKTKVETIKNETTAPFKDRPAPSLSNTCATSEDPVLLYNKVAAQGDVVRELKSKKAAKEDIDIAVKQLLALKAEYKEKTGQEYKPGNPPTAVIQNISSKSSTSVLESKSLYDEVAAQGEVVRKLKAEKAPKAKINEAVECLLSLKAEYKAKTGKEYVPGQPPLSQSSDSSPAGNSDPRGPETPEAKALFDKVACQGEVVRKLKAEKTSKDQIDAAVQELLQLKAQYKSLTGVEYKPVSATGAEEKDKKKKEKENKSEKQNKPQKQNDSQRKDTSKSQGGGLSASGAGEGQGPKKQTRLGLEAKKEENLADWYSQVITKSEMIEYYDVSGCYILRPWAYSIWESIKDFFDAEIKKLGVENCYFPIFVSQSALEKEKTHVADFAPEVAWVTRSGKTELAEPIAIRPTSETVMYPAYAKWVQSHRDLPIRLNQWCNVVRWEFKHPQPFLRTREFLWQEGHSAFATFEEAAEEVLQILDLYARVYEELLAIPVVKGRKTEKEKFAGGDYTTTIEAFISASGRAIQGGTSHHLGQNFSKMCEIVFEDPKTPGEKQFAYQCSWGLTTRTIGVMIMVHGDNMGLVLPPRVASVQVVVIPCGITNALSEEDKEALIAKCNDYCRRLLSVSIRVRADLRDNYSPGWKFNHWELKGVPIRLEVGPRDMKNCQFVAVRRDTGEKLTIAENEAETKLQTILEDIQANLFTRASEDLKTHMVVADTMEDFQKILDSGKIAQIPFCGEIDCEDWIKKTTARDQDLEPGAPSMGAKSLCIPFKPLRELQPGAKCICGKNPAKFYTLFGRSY
Experimental: FIG. 23D is a graph showing that HF inhibits prolyl tRNA synthetase activity in RRL. ^14C Pro or ^35S Met were incubated with RRL and total bovine tRNA in the presence or absence of HF or MAZ1310, and incorporation of radioactivity into tRNA was measured by liquid scintillation counting. Error bars reflect standard deviation of triplicate determinations. Data are representative of two separate experiments.
The effects of HF on prolyl-tRNA charging was examined. RRL were supplemented with ^14C-Pro or ^35S-Met in the presence or absence of HF, and total tRNA was isolated (FIG. 23D).

[1] = system: adjuvant-driven EAE in wild-type B6 mice; assay: Adjuvant-driven EAE (MOG33-55 immunization); format: in vivo, mouse
From the text: The ability of systemic HF treatment to block IL-17 expression and associated autoimmune inflammation in vivo was examined using two distinct models of experimental autoimmune encephalomyelitis (EAE). […] The second model, a passive model of EAE induction, is initiated by the transfer of myelin proteolipid protein (PLP)-reactive T cells into lymphopenic hosts.
Adjuvant-driven EAE was induced in 8 week-old wild-type B6 mice purchased from Charles River laboratories (Kingston, N.Y.) by subcutaneous injection of […] peptide emulsified in Incomplete Freund's Adjuvant (IFA) plus 5 mg/ml heat-killed M. tuburculosis (BD Biosciences) in both dorsal flanks as described in Veldhoen et al. (Nat. Immunol. 7(11):1151-1156, 2006).
Mice were injected daily with HF (2 μg/mouse) or vehicle control (DMSO) i.p. Clinical signs of EAE were assessed according to the following score: 0, no signs of disease; 1, flaccid tail; 2, weak gait/hind limb paresis; 3, hind limb paralysis; 4, tetraplegia; 5, moribund. Cytokine production during EAE was determined either in peripheral T cells isolated from spleen or lymph nodes of mice prior to disease onset (day 6-10) or in mononuclear cells isolated from the brain and spinal cords of mice with severe disease (clinical score ≧2) between days 15-20. Briefly, splenocytes were stained for intracellular cytokines following erythrocyte lysis with ammonium chloride buffer. T cells were isolated from brain and spinal cords of mice with active EAE following perfusion with cold PBS. Minced CNS tissue was digested with liberase C1 (0.33 mg/ml, Roche Diagnostics) or collagenase D (10 mg/ml, Roche Diagnostics) at 37° C. for 30-45 minutes. Cell suspensions were passed through 70 μm cell strainers (VWR) and fractionated by 70%/30% Percoll gradient centrifugation. Mononuclear cells were collected from the interphase, washed and used for intracellular cytokine analysis.

[2] = 2 μg HF daily, ˜0.1 mg/kg, i.p.

Structure (SMILES): O=C(CC1NCCCC1O)Cn1cnc2cc(Br)c(Cl)cc2c1=O (racemic) [HF, halofuginone]
- TGFβ-induced Smad phosphorylation and other lymphocyte responses to TGFβ (TGFβ signaling): inhibited neither
- incorporation of 14C-Pro into tRNA (prolyl tRNA synthetase): inhibited
- CD4+ T cell infiltrates into the CNS ([1]; 2 μg HF daily i.p.): overall reduction
- IFNγ expression in the same T cell populations ([1]; 2 μg HF daily i.p.): did not affect IFNγ expression; also recorded: had no effect on the number of IFNγ T-cells
- T cell-derived IL-17 expression in lymph nodes and CNS tissue ([1]; 2 μg HF daily i.p.): reduction; also recorded: selectively reduced the number of IL-17 expressing T cells
- frequency of disease onset [1, 2]: significantly reduced
- severity of adjuvant-driven EAE disease [1, 2]: significantly reduced
- clinical score of mice analysed ([1]; 17 days after immunization with MOG): 0
- clinical score of mice analysed ([1]; day 18): 0
